Results as given in patent publication US20200163984A1, “USE OF ISOVALERYL SPIRAMYCIN I, II AND/OR III IN MANUFACTURING MEDICAMENT FOR TREATING AND/OR PREVENTING TUMOR, AND MEDICAMENT” (SHENYANG FUYANG PHARMACEUTICAL TECHNOLOGY CO., LTD., priority 2017, published 2020).

Key:
[1] = Thymus index and spleen index of H22 liver cancer tumor-bearing mice
Method: In the H22 liver cancer model, the mice inoculated with the tumor were randomly divided into groups with 10 mice in each group on the next day of inoculation. The groups included: a model control group, a positive drug cyclophosphamide control group (CTX, 26 mg/kg), isovaleryl spiramycin I groups with doses of 13, 26 and 52 mg/kg; isovaleryl spiramycin II groups with doses of 13, 26 and 52 mg/kg; isovaleryl spiramycin III groups with doses of 13, 26 and 52 mg/kg. Each group was continuously administered intragastrically for 7 days with a dose of 20 ml/kg.

[2] = system: NK cell activity of spleen cells against K562 cells; test: Natural killer (NK) cell activity of Lewis lung cancer tumor-bearing mice; type: in vivo, C57BL/6 mouse
Method: In the Lewis lung cancer model, the mice inoculated with the tumor were randomly divided into groups with 10 mice in each group the next day of inoculation. The groups included: a model control group, a positive drug cyclophosphamide control group (CTX, 30 mg/kg), isovaleryl spiramycin I groups with doses of 13, 26 and 52 mg/kg; isovaleryl spiramycin II groups with doses of 13, 26 and 52 mg/kg; isovaleryl spiramycin III groups with doses of 13, 26 and 52 mg/kg. Each group was continuously administered intragastrically for 15 days with a dose of 20 ml/kg.
The serum-free RPMI 1640 medium was placed in a dish, and then the dish was placed on ice. The spleen was aseptically taken and gently ground with a sterile glass slide to prepare a single cell suspension. The single cell suspension was filtered with a double-layer sterile gauze, washed twice with serum-free RPMI1640 medium, and centrifuged at 1,500 rpm for 5 min to remove the obtained supernatant. 2 mL of red blood cell lysate was added to the treated suspension, the mixture was allowed to stand for 2 min, and then 8 mL of RPMI 1640 medium was added, centrifuging was performed at 1,500 rpm for 5 min to remove the obtained supernatant, and then washing was performed twice with the RPMI 1640 medium. […] A single cell suspension was prepared by using a RPMI 1640 medium containing 10% fetal bovine serum.
The spleen cell suspension was taken, and the cell density was adjusted to 1×10^7/mL (effector cells). A suspension of K562 cells was prepared with a cell density of 1×10^5/mL (target cells). Each mouse was set with: A. effector cells:target cell well (quantity ratio 20:1) to which […] of spleen cell suspension and 100 μL of K562 cell suspension were added; B. an effector cell control well to which 100 μL of spleen cell suspension and 100 μL of RPMI 1640 medium were added; and C. a target cell control well to which 100 μL of K562 cell suspension and 100 μL of RPMI 1640 medium were added. The above cells were added to a 96-well plate. After the 96-well plate was transferred to a saturated humidity condition with a volume fraction of 5% CO2 at 37° C. for incubation for 22 h, 10 μL of MTT solution (5 g/L) was added to each well, and incubation was continued to be performed for 4 hours under the same conditions, then the culture was terminated. 100 μl of a triple solution (SDS 10 g, 10M HCl 0.1 mL, isobutanol 5 mL, diluted with distilled water to 100 mL) was added, and the plate was shaken for 10 min to fully dissolve the crystals, and the Optical Density (OD) of each well at 490 nm was measured, and the NK cell activity was calculated. NK cell activity (%)=[TO−(S−E)]/TO×100%, wherein TO is the Optical Density of the target cell control well, S is the Optical Density of the effector cell control well, and E is the Optical Density of the effector cell.

[3] = system: transplanted tumor of human glioma cell U251; test: U251 transplanted tumor in nude mice
Method: U251 cells in a logarithmic growth phase were taken and subjected to a trypan blue exclusion experiment showing that the cell viability was more than 95%, then the cells were subjected to trypsinization, centrifugation, and supernatant removal. Then cell concentration was adjusted to 1×10^7/ml with matrigel, then each nude mouse was inoculated subcutaneously with 0.2 ml of cells at its right armpit and recorded as the first day of inoculation. When the tumor grows to be greater than or equal to 100 mm^3, the mice were randomly divided into 11 groups with 6 mice in each group: a model group, a cyclophosphamide group, isovaleryl spiramycin I groups with doses of 25, 50 and 100 mg/kg, isovaleryl spiramycin II groups with doses of 25, 50 and 100 mg/kg, and isovaleryl spiramycin III groups with doses of 25, 50 and 100 mg/kg. Each group was continuously administered intragastrically for 30 days with a dose of 20 ml/kg. The mice were sacrificed the next day after drug withdrawal and the indicators were tested. The long diameter and short diameter of the tumor, and the body weight of each mouse were recorded every 3 days from drug administration to nude mouse sacrifice.
The body weight of the nude mice and the long diameter (a) and short diameter (b) of the transplanted tumor were measured every 3 days, and the tumor volume (v), relative tumor volume (RTV) and relative tumor proliferation rate (T/C) are calculated respectively according to the following formulas, wherein V=a×b^2/2; RTV=V/V0 (V0 is the tumor volume before administration, V is the tumor volume before sacrifice), and T/C (%)=treatment group RTV/model control group RTV×100%.
Each mouse was weighed and sacrificed. After the tumor was completely stripped off from the body of the mouse, the non-tumor tissues such as blood stains and fat were removed to weigh the tumor and calculate the tumor growth inhibition rate. The average tumor weight of each group of mice is used as an indicator of efficacy. Tumor growth inhibition rate (%)=(1−the average tumor weight of the treatment group/the average tumor weight of the model group)×100%.

[4] = Spleen index of A549 lung cancer tumor-bearing mice; settings: for Spleen Index (%): n = 6
[5] = U251, high dose (100 mg/kg in method) i.g. 30 days
[6] = U251, low dose (25 mg/kg in method) i.g. 30 days
[7] = U251, medium dose (50 mg/kg in method) i.g. 30 days

O=P1(N(CCCl)CCCl)NCCCO1 (stereo not drawn) [Cyclophosphamide, cyclophosphamide, reference compound]
thymus index and spleen index compared with the control group ([1]; H22 tumor-bearing mice, cyclophosphamide, P<0.01): significantly lower
Spleen Index (%) ([1]; dose 26 mg/kg): 0.38 ± 0.09 %
Thymus Index (%) ([1]; dose 26 mg/kg): 0.04 ± 0.02 %
NK Cell Activity ([2]; 26 mg/kg): 35.4 ± 6.6 %
NK cell activity compared with the control group ([2]; cyclophosphamide, P<0.05): significantly lower
Inhibition Rate (%) ([3]; U251 nude mice, 30 mg/kg): 69.31%
Relative Tumor Proliferation Rate (T/C) ([3]; U251 nude mice, 30 mg/kg): 62.92%
Relative Tumor Volume (RTV) ([3]; U251 nude mice, 30 mg/kg): 4.23 ± 0.95
Tumor Weight ([3]; U251 nude mice, 30 mg/kg): 0.42 ± 0.06 g
Body Weight (g) (d1) ([3]; U251 nude mice, 30 mg/kg, d1): 20.72 ± 0.48 g
Tumor Volume (mm3) (d 1) ([3]; U251 nude mice, 30 mg/kg, d1): 119.00 ± 11.13 mm3
Body Weight (g) (d30) ([3]; U251 nude mice, 30 mg/kg, d30): 19.40 ± 1.40 g
Tumor Volume (mm3) (d30) ([3]; U251 nude mice, 30 mg/kg, d30): 504.56 ± 93.91 mm3
spleen index compared with the control group ([4]; A549 tumor-bearing mice, cyclophosphamide, P<0.01): significantly lower
Spleen Index (%) ([4]; dose 26 mg/kg): 0.21 ± 0.07 %

CO[C@@H]1[C@@H](O[C@@H]2O[C@H](C)[C@@H](O[C@H]3C[C@@](C)(O)[C@@H](OC(=O)CC(C)C)[C@H](C)O3)[C@H](N(C)C)[C@H]2O)[C@@H](CC=O)C[C@@H](C)[C@@H](O[C@H]2CC[C@H](N(C)C)[C@@H](C)O2)/C=C/C=C/C[C@@H](C)OC(=O)C[C@H]1O [Isovaleryl spiramycin I, isovaleryl spiramycin I]
Spleen Index (%) ([1]; dose 13 mg/kg): 0.72 ± 0.07%
Thymus Index (%) ([1]; dose 13 mg/kg): 0.15 ± 0.07%
Spleen Index (%) ([1]; dose 26 mg/kg): 0.60 ± 0.15%
Thymus Index (%) ([1]; dose 26 mg/kg): 0.14 ± 0.01%
Spleen Index (%) ([1]; dose 52 mg/kg): 0.86 ± 0.25 %
Thymus Index (%) ([1]; dose 52 mg/kg): 0.12 ± 0.04%
NK Cell Activity ([2]; 13 mg/kg): 52.5 ± 9.2%
NK Cell Activity ([2]; 26 mg/kg): 67.0 ± 12.1 %
NK Cell Activity ([2]; 52 mg/kg): 39.8 ± 6.8%
NK cell activity compared with the control group ([2]; 13, 26 and 52 mg/kg, P<0.01): significantly increase
Relative Tumor Proliferation Rate (T/C) [3, 5]: 25.80%
tumor growth inhibition rate [3, 5]: 69.21%
Relative Tumor Proliferation Rate (T/C) [3, 6]: 76.40%
tumor growth inhibition rate [3, 6]: 30.94%
tumor volume and relative tumor volume compared with the model group ([3]; U251, low, medium and high doses, P<0.05): significantly lower
Relative Tumor Proliferation Rate (T/C) [3, 7]: 44.54%
tumor growth inhibition rate [3, 7]: 44.53%
Inhibition Rate (%) ([3]; U251 nude mice, 25 mg/kg): 30.94%
Relative Tumor Proliferation Rate (T/C) ([3]; U251 nude mice, 25 mg/kg): 76.40%
Relative Tumor Volume (RTV) ([3]; U251 nude mice, 25 mg/kg): 12.69 ± 1.08
Tumor Weight ([3]; U251 nude mice, 25 mg/kg): 0.96 ± 0.08 g
Tumor Volume (mm3) (d 1) ([3]; U251 nude mice, 25 mg/kg, d1): 122.81 ± 10.35 mm3
Tumor Volume (mm3) (d30) ([3]; U251 nude mice, 25 mg/kg, d30): 1550.33 ± 72.99 mm3
Inhibition Rate (%) ([3]; U251 nude mice, 50 mg/kg): 44.53%
Relative Tumor Proliferation Rate (T/C) ([3]; U251 nude mice, 50 mg/kg): 44.54%
Relative Tumor Volume (RTV) ([3]; U251 nude mice, 50 mg/kg): 10.67 ± 1.09
Tumor Weight ([3]; U251 nude mice, 50 mg/kg): 0.77 ± 0.09 g
Tumor Volume (mm3) (d 1) ([3]; U251 nude mice, 50 mg/kg, d1): 124.39 ± 10.31 mm3
Tumor Volume (mm3) (d30) ([3]; U251 nude mice, 50 mg/kg, d30): 930.42 ± 204.72 mm3
Inhibition Rate (%) ([3]; U251 nude mice, 100 mg/kg): 69.21%
Relative Tumor Proliferation Rate (T/C) ([3]; U251 nude mice, 100 mg/kg): 25.80%
Relative Tumor Volume (RTV) ([3]; U251 nude mice, 100 mg/kg): 10.05 ± 0.71
Tumor Weight ([3]; U251 nude mice, 100 mg/kg): 0.43 ± 0.01 g
Tumor Volume (mm3) (d 1) ([3]; U251 nude mice, 100 mg/kg, d1): 124.88 ± 6.57 mm3
Tumor Volume (mm3) (d30) ([3]; U251 nude mice, 100 mg/kg, d30): 537.02 ± 93.66 mm3
mouse weight compared with the model group ([3]; mouse, in vivo): no significant changes
Body Weight (g) (d1) ([3]; mouse, in vivo, 25 mg/kg): 21.03 ± 0.55 g
Body Weight (g) (d30) ([3]; mouse, in vivo, 25 mg/kg): 21.09 ± 0.53 g
Body Weight (g) (d1) ([3]; mouse, in vivo, 50 mg/kg): 20.78 ± 0.66 g
Body Weight (g) (d30) ([3]; mouse, in vivo, 50 mg/kg): 21.08 ± 0.54 g
Body Weight (g) (d1) ([3]; mouse, in vivo, 100 mg/kg): 21.10 ± 0.35 g
Body Weight (g) (d30) ([3]; mouse, in vivo, 100 mg/kg): 20.86 ± 0.66 g
Spleen Index (%) ([4]; dose 13 mg/kg): 0.32 ± 0.12%
Spleen Index (%) ([4]; dose 26 mg/kg): 0.38 ± 0.09%
Spleen Index (%) ([4]; dose 52 mg/kg): 0.31 ± 0.08%
